# Earlier results, collected in US7399639B2, “Sensors, and methods of making and using the same” (Massachusetts Institute of Technology, priority 2003, dated 2008).
# Experiments:
# [1] = reported elsewhere; cited from earlier work
# [2] = reported elsewhere; cited from earlier work; remark: listed apart in the source
# [3] = reported elsewhere; cited from earlier work; remark: listed apart in the source
# [4] = reported elsewhere, cited from earlier work
compound,measurement,setting,value
O=C(O)c1ccccc1-c1c2cc(Cl)c(=O)cc-2oc2c(CNc3ccccc3CN(Cc3ccccn3)Cc3ccccn3)c(O)ccc12 [Zinpyr-4],increase in integrated emission in response to the dual-metal buffering system,[1],~5 fold
same,pKa of the aniline nitrogen,[2],7.2
same,metal ion selectivity,[3],Zn(II) and Cd(II) selective
same,quantum efficiency,[4]; metal-free,0.05
same,increase in brightness upon Zn(II) binding,[4],6.7 fold
same,quantum efficiency of Zn(II) complex,[4],0.34
